Test: Stability test of crystal forms (40±2° C., RH 75±5%, 3 months)
Type: physicochemical
Details: for Crystal appearance / Melting point / Purity / Specific optical rotation: stability test
Description: The crystal forms obtained in Examples 2 to 4 were placed under an environment having a temperature of 40±2° C. and a humidity of RH 75±5% for 3 months. The melting point, specific optical rotation, purity and crystal appearance were measured on 0 day, 1-month, 2-month and 3-month, respectively.

[1] = 3 months, conclusion from Table 2

| Structure (SMILES) | Crystal appearance (0 month) | Melting point (0 month) | Purity (0 month) | Specific optical rotation (0 month) | Crystal appearance (1 month) | Melting point (1 month) | Purity (1 month) | Specific optical rotation (1 month) | Crystal appearance (2 months) | Melting point (2 months) | Purity (2 months) | Specific optical rotation (2 months) | Crystal appearance (3 months) | Melting point (3 months) | Purity (3 months) | Specific optical rotation (3 months) | Crystal transformation [1] | Stability [1] |
| --- | --- | --- | --- | --- | --- | --- | --- | --- | --- | --- | --- | --- | --- | --- | --- | --- | --- | --- |
| CCC(=O)O[C@H]1CC[C@@]2(C)C(=CC[C@@H]3[C@@H]2CC[C@]2(C)C(c4cccnc4)=CC[C@@H]32)C1 [Example 2, (3β)-17-(3-pyridyl)-androstane-5,16-dien-3-ol propionate] | No change | 109.5~110.4 °C | 99.88 | −44.32° | No change | 109.4~110.3 °C | 99.86 | −44.06° | No change | 109.4~110.5 °C | 99.82 | −43.67° | No change | 109.8~110.5 °C | 99.81 | −44.23° |  |  |
| CCC(=O)O[C@H]1CC[C@@]2(C)C(=CC[C@@H]3[C@@H]2CC[C@]2(C)C(c4cccnc4)=CC[C@@H]32)C1 [Example 3, (3β)-17-(3-pyridyl)-androstane-5,16-dien-3-ol propionate] | No change | 109.7~110.6 °C | 99.89 | −44.34° | No change | 109.4~110.4 °C | 99.87 | −44.21° | No change | 109.5~110.0 °C | 99.84 | −44.05° | No change | 109.8~110.6 °C | 99.82 | −43.99° |  |  |
| CCC(=O)O[C@H]1CC[C@@]2(C)C(=CC[C@@H]3[C@@H]2CC[C@]2(C)C(c4cccnc4)=CC[C@@H]32)C1 [Example 4, (3β)-17-(3-pyridyl)-androstane-5,16-dien-3-ol propionate] | No change | 109.6~110.5 °C | 99.86 | −44.46° | No change | 109.4~110.4 °C | 99.83 | −44.13° | No change | 109.5~110.7 °C | 99.81 | −44.08° | No change | 109.7~110.6 °C | 99.79 | −43.92° |  |  |
| CCC(=O)O[C@H]1CC[C@@]2(C)C(=CC[C@@H]3[C@@H]2CC[C@]2(C)C(c4cccnc4)=CC[C@@H]32)C1 [crystal form of Abiraterone propionate, (3β)-17-(3-pyridyl)-androstane-5,16-dien-3-ol propionate] |  |  |  |  |  |  |  |  |  |  |  |  |  |  |  |  | no crystal transformation occurred | good stability |

From patent publication US10087212B2, “Crystal form of Abiraterone propionate and preparation method therefor” (CHONGQING PHARMACEUTICAL RESEARCH INSTITUTE CO., LTD, priority 2015, dated 2018)
